Data: ChEMBL document CHEMBL4376804, “Review of Transient Receptor Potential Canonical (TRPC5) Channel Modulators and Diseases” (J Med Chem, 2019)

Legend:
[1] = organism: Mus musculus; experiment: Selectivity ratio of IC50 for YFP-tagged mouse TRPC4 beta expressed in thapsigargin treated HEK293 cells co-expressing M3 receptor to IC50 for mouse TRPC5 expressed in thapsigargin treated HEK293/TREx cells; assay type: cell-based
[2] = target: T1, Short transient receptor potential channel 6 (Homo sapiens, UniProt Q9Y210); experiment: Inhibition of YFP-tagged human TRPC6 expressed in thapsigargin treated HEK293 cells assessed as reduction in amix-induced calcium level by fluo-4 dye based fluorescence assay; assay type: cell-based
T1 sequence (Q9Y210 whole entry): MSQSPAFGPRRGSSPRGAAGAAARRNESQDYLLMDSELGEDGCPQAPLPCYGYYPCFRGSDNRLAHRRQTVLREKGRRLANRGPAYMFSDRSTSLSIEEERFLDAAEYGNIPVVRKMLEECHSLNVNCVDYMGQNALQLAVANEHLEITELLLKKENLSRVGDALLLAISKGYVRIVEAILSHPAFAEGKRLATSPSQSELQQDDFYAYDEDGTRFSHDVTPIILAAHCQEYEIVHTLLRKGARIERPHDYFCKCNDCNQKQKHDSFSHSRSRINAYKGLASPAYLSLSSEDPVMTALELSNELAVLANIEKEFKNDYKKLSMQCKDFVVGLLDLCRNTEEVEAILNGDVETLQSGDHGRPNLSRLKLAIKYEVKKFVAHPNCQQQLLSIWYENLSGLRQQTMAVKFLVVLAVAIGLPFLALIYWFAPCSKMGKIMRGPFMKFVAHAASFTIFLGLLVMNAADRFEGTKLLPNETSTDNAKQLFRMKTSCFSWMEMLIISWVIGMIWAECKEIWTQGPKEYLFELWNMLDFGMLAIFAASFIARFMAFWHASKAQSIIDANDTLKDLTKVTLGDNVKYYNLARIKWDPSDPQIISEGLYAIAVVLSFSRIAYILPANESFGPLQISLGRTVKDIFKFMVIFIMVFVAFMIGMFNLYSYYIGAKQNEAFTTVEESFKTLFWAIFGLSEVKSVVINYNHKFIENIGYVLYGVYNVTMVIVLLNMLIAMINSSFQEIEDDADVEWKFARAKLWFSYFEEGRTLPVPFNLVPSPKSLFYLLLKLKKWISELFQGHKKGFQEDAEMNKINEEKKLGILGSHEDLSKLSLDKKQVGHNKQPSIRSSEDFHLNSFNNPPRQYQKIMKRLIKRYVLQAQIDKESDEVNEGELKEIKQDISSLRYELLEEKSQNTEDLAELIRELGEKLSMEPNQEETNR

[3] = Selectivity ratio of IC50 for YFP-tagged human TRPC3 expressed in thapsigargin treated HEK293 cells to IC50 for mouse TRPC5 expressed in thapsigargin treated HEK293/TREx cells; assay type: cell-based
[4] = target: Transient receptor potential cation channel subfamily V member 2 (Rattus norvegicus, UniProt Q9WUD2); experiment: Inhibition of YFP-tagged rat TRPV2 expressed in HEK293 cells assessed as reduction in calcium level by fluo-4 dye based fluorescence assay; assay type: cell-based
Sequence of Transient receptor potential cation channel subfamily V member 2 (Q9WUD2 whole entry): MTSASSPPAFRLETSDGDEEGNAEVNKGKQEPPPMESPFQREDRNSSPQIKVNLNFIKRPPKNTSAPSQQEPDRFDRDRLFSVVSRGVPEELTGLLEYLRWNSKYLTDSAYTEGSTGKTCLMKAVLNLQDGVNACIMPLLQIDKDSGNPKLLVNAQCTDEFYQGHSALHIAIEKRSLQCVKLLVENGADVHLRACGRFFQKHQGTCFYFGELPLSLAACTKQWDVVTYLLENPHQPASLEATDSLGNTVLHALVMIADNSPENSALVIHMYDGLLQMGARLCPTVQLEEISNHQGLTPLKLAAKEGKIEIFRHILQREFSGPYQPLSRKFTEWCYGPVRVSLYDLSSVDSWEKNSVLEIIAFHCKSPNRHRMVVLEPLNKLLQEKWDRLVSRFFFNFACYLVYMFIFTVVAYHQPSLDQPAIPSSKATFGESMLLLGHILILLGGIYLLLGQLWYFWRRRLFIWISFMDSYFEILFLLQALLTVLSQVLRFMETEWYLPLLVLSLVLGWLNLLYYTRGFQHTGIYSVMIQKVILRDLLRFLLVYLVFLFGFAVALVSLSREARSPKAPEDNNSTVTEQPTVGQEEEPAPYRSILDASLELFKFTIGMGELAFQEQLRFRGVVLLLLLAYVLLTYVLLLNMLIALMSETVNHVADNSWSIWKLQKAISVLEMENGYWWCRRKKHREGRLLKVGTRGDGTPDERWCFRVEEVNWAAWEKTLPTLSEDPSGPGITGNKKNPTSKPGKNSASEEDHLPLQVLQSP

[5] = target: T2, Short transient receptor potential channel 4 (Mus musculus, UniProt Q9QUQ5); experiment: Inhibition of mouse TRPC4 by FLIPR assay
T2 sequence (Q9QUQ5 whole entry): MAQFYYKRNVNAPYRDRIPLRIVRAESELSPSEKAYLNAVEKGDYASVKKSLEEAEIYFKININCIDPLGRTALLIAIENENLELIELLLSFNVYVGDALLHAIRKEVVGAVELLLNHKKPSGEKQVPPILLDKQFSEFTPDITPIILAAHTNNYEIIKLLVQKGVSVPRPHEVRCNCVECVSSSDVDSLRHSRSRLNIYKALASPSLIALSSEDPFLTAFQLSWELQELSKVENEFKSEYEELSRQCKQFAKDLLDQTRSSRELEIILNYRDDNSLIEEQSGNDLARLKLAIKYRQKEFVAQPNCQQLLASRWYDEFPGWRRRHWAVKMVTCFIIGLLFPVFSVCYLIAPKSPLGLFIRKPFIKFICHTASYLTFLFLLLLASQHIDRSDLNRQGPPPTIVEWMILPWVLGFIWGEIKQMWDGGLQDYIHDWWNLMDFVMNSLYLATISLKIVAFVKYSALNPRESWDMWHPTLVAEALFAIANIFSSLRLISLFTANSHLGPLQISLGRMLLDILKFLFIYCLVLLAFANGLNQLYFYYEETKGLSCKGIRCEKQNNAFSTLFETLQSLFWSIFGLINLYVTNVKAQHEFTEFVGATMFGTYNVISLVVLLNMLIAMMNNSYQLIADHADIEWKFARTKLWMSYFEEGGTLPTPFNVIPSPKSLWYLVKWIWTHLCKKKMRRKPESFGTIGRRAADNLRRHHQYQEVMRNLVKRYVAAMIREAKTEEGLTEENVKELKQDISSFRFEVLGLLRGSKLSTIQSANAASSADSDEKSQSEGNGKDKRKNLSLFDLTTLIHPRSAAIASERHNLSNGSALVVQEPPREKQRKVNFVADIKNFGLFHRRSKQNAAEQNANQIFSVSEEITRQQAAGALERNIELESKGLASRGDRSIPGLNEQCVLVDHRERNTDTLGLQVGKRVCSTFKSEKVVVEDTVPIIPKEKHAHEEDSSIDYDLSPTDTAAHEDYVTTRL

Compound	Ratio IC50 [1]	IC50 [2]	Ratio IC50 [3]	IC50 [4]	IC50 [5]
Clc1ccc(Cn2c(CN3CCCC3)nc3ccccc32)cc1 [CLEMIZOLE]	6	11.3 µM	10	> 20 µM	
N#Cc1ccc(O[C@@H]2c3ccccc3C[C@H]2N2CCC[C@@H](N)C2)c(Cl)c1					> 10 µM
